Experimental data as given in US4605744A, “Imidazole derivatives” (Hoffmann-La Roche Inc., priority 1985, dated 1986).
Structures can show the parent of a compound that is named as a salt. Where two headings read alike, the source gives them in different places.

How the values were obtained:
Assay in all cases: In vitro antibacterial activity (MIC)
Assay type in all cases: cell-based
P. aeruginosa Stone 130 = conditions: Pseudomonas aeruginosa, STONE130, read-out: MIC
Summary of the method: (§1)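 Twofold-style dilution series (128 to 0.008 μg/ml) made in Mueller-Hinton broth, dispensed, then inoculated with 1.5 μl of a 10^-2 overnight-culture dilution. Plates sealed, held overnight at 37° C, inspected with a viewer.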

E. cloacae 9295 = conditions: Enterobacter cloacae, 9295, E. cloacae 9295; read-out: MIC
Summary of the method: as §1

E. coli 387-1 = conditions: Escherichia coli, 3871, E. coli 387-1; read-out: MIC
Summary of the method: as §1

S. aureus Smith = conditions: Staphylococcus aureus, S. aureus Smith; read-out: MIC
Summary of the method: as §1

S. marcescens SM = conditions: Serratia marcescens, read-out: MIC
Summary of the method: as §1

S. schottmuelleri = system: S. schottmuelleri
Summary of the method: as §1

P. aeruginosa 5712 = conditions: Pseudomonas aeruginosa; P. aeruginosa 5712; read-out: MIC
Summary of the method: as §1

S. pyogenes 503-782 = conditions: Streptococcus pyogenes, 503782; S. pyogenes 503-782; read-out: MIC
Summary of the method: as §1

P. aeruginosa 503-820 = conditions: Pseudomonas aeruginosa, 503820; P. aeruginosa 503-820; read-out: MIC
Summary of the method: as §1

P. mirabilis 2 = conditions: Proteus mirabilis, 2, P. mirabilis 2; read-out: MIC
Summary of the method: as §1

K. pneumoniae 503-964 = conditions: Klebsiella pneumoniae, 503964; K. pneumoniae 503-964; read-out: MIC
Summary of the method: as §1

S. pneumoniae SC = conditions: Streptococcus pneumoniae, read-out: MIC
Summary of the method: as §1

P. aeruginosa 6148B = conditions: Pseudomonas aeruginosa, read-out: MIC
Summary of the method: as §1

P. vulgaris ATCC 6380 = conditions: Proteus vulgaris, ATCC6380, P. vulgaris ATCC 6380; read-out: MIC
Summary of the method: as §1

K. pneumoniae 5096 = conditions: Klebsiella pneumoniae; K. pneumoniae 5096; read-out: MIC
Summary of the method: as §1

P. aeruginosa 8780 = conditions: Pseudomonas aeruginosa; P. aeruginosa 8780; read-out: MIC
Summary of the method: as §1

P. aeruginosa 8710 = conditions: Pseudomonas aeruginosa; P. aeruginosa 8710; read-out: MIC
Summary of the method: as §1

E. aerogenes 83 = conditions: Klebsiella aerogenes, 83, E. aerogenes 83; read-out: MIC
Summary of the method: as §1

K. pneumoniae A = conditions: Klebsiella pneumoniae, K. pneumoniae A; read-out: MIC
Summary of the method: as §1

P. vulgaris 100 = conditions: Proteus vulgaris; P. vulgaris 100; read-out: MIC
Summary of the method: as §1

S. marcescens S147 = conditions: Serratia marcescens; S. marcescens S147; read-out: MIC
Summary of the method: as §1

S. marcescens S1 = conditions: Serratia marcescens, S1, S. marcescens S1; read-out: MIC
Summary of the method: as §1

K. pneumoniae 503-994 = conditions: Klebsiella pneumoniae, 503994, K. pneumoniae 503-994; read-out: MIC
Summary of the method: as §1

S. pyogenes 4 = conditions: Streptococcus pyogenes, 4, S. pyogenes 4; read-out: MIC
Summary of the method: as §1

S. marcescens S4 = conditions: Serratia marcescens, S4, S. marcescens S4; read-out: MIC
Summary of the method: as §1

P. aeruginosa 503-56 = conditions: Pseudomonas aeruginosa, 50356, P. aeruginosa 503-56; read-out: MIC
Summary of the method: as §1

K. pneumoniae 4964 = system: K. pneumoniae 4964
Summary of the method: as §1

E. cloacae P99 = conditions: Enterobacter cloacae, P99, E. cloacae P99
Summary of the method: as §1

P. vulgaris 101 = conditions: Proteus vulgaris, 101, P. vulgaris 101; read-out: MIC
Summary of the method: as §1

E. coli 48 = conditions: Escherichia coli, 48, E. coli 48; read-out: MIC
Summary of the method: as §1

E. coli 4 = conditions: Escherichia coli, 4, E. coli 4; read-out: MIC
Summary of the method: as §1

P. mirabilis 503-1136 = conditions: Proteus mirabilis, 5031136, P. mirabilis 503-1136; read-out: MIC
Summary of the method: as §1

K. pneumoniae 35 = conditions: Klebsiella pneumoniae; K. pneumoniae 35; read-out: MIC
Summary of the method: as §1

E. coli 5152 = system: E. coli 5152
Summary of the method: as §1

S. marcescens S714 = conditions: Serratia marcescens, S714, S. marcescens S714; read-out: MIC
Summary of the method: as §1

C. freundii CDC6 = conditions: Citrobacter freundii, CDC6, C. freundii CDC6; read-out: MIC
Summary of the method: as §1

C. diversus CDC 1663-72 = conditions: Citrobacter koseri, CDC166372; C. diversus CDC 1663-72; read-out: MIC
Summary of the method: as §1

P. mirabilis 620A = conditions: Proteus mirabilis, 620A
Summary of the method: as §1

K. pneumoniae HE7 = conditions: Klebsiella pneumoniae; K. pneumoniae HE7; read-out: MIC
Summary of the method: as §1

S. typhi P58A = conditions: Salmonella enterica, TYPHI
Summary of the method: as §1

E. coli R-563 = conditions: Escherichia coli, R563, E. coli R-563; read-out: MIC
Summary of the method: as §1

S. pneumoniae 6302 = conditions: Streptococcus pneumoniae, 6302, S. pneumoniae 6302; read-out: MIC
Summary of the method: as §1

S. marcescens 5805 = conditions: Serratia marcescens, 5805, S. marcescens 5805; read-out: MIC
Summary of the method: as §1

P. rettgeri ATCC 9250 = conditions: Providencia rettgeri, ATCC9250, P. rettgeri ATCC 9250; read-out: MIC
Summary of the method: as §1

[1] = Klebsiella pneumoniae, 4964, K. pneumoniae 4964, read-out: MIC
[2] = Escherichia coli, 5152, E. coli 5152, read-out: MIC
[3] = P. mirabilis 620A, read-out: MIC

## Cc1nc(C)n(CCCC2CCN(C=N[C@@H]3C(=O)N4[C@@H]3SC(C)(C)[C@@H]4C(=O)O)CC2)c1C [E, [2S-(2alpha,5alpha,6beta)]-6[[4-[3-[(2,4,5-trimethyl-1H-imidazol-1-yl)propyl]-1-piperidinyl]methylene]amino]-3,3-dimethyl-7-oxo-4-thia-1-azabicyclo[3.2.0]heptane-2-carboxylic acid hydrate hydrochloride]
P. aeruginosa Stone 130
  MIC: > 128 mg/L
E. cloacae 9295
  MIC: 0.25 mg/L
E. coli 387-1
  MIC: 4 mg/L
S. aureus Smith
  MIC: 8 mg/L
S. marcescens SM
  MIC: 0.125 mg/L
S. schottmuelleri; read-out: MIC
  MIC: 0.062 mg/L
P. aeruginosa 5712
  MIC: > 128 mg/L
S. pyogenes 503-782
  MIC: 128 mg/L
P. aeruginosa 503-820
  MIC: > 128 mg/L
P. mirabilis 2
  MIC: 0.5 mg/L
K. pneumoniae 503-964
  MIC: 0.062 mg/L
S. pneumoniae SC
  MIC: 0.5 mg/L
P. aeruginosa 6148B
  MIC: > 128 mg/L
P. vulgaris ATCC 6380
  MIC: 0.062 mg/L
K. pneumoniae 5096
  MIC: > 128 mg/L
P. aeruginosa 8780
  MIC: > 128 mg/L
P. aeruginosa 8710
  MIC: > 128 mg/L
E. aerogenes 83
  MIC: 0.5 mg/L
K. pneumoniae A
  MIC: 0.062 mg/L
P. vulgaris 100
  MIC: 8 mg/L
S. marcescens S147
  MIC: 0.5 mg/L
S. marcescens S1
  MIC: 1 mg/L
K. pneumoniae 503-994
  MIC: 0.062 mg/L
S. pyogenes 4
  MIC: 0.5 mg/L
S. marcescens S4
  MIC: 0.5 mg/L
P. aeruginosa 503-56
  MIC: > 128 mg/L
K. pneumoniae 4964; [1]
  MIC: 1 mg/L
E. cloacae P99
  MIC: 0.125 mg/L
P. vulgaris 101
  MIC: 4 mg/L
E. coli 48
  MIC: 0.062 mg/L
E. coli 4
  MIC: 4 mg/L
P. mirabilis 503-1136
  MIC: 4 mg/L
K. pneumoniae 35
  MIC: 0.125 mg/L
E. coli 5152; [2]
  MIC: 8 mg/L
S. marcescens S714
  MIC: 1 mg/L
C. freundii CDC6
  MIC: 0.125 mg/L
C. diversus CDC 1663-72
  MIC: 0.062 mg/L
P. mirabilis 620A; [3]
  MIC: 128 mg/L
K. pneumoniae HE7
  MIC: > 128 mg/L
S. typhi P58A
  MIC: 0.062 mg/L
E. coli R-563
  MIC: 4 mg/L
S. pneumoniae 6302
  MIC: 1 mg/L
S. marcescens 5805
  MIC: 0.5 mg/L
P. rettgeri ATCC 9250
  MIC: 0.5 mg/L

## CC1(C)S[C@@H]2[C@H](N=CN3CCC(Cn4ccnc4CN)CC3)C(=O)N2[C@H]1C(=O)O [J, [2S-(2alpha,5alpha,6beta)]-6-[[[4-[[2-(aminomethyl)-1H-imidazol-1-yl]methyl]-1-piperidinyl]methylene]amino]-3,3-dimethyl-7-oxo-4-thia-1-azabicyclo[3.2.0]heptane-2-carboxylic acid hydrochloride]
P. aeruginosa Stone 130
  MIC: > 128 mg/L
E. cloacae 9295
  MIC: 4 mg/L
E. coli 387-1
  MIC: 0.125 mg/L
S. aureus Smith
  MIC: 8 mg/L
S. marcescens SM
  MIC: 0.5 mg/L
S. schottmuelleri
  MIC: 0.062 mg/L
P. aeruginosa 5712
  MIC: > 128 mg/L
S. pyogenes 503-782
  MIC: 128 mg/L
P. aeruginosa 503-820
  MIC: > 128 mg/L
P. mirabilis 2
  MIC: 8 mg/L
K. pneumoniae 503-964
  MIC: 0.25 mg/L
S. pneumoniae SC
  MIC: 4 mg/L
P. aeruginosa 6148B
  MIC: 128 mg/L
P. vulgaris ATCC 6380
  MIC: 0.125 mg/L
K. pneumoniae 5096
  MIC: 128 mg/L
P. aeruginosa 8780
  MIC: > 128 mg/L
P. aeruginosa 8710
  MIC: > 128 mg/L
E. aerogenes 83
  MIC: 1 mg/L
K. pneumoniae A
  MIC: 0.062 mg/L
P. vulgaris 100
  MIC: 8 mg/L
S. marcescens S147
  MIC: 0.25 mg/L
S. marcescens S1
  MIC: 0.5 mg/L
K. pneumoniae 503-994
  MIC: 8 mg/L
S. pyogenes 4
  MIC: 4 mg/L
S. marcescens S4
  MIC: 1 mg/L
P. aeruginosa 503-56
  MIC: 64 mg/L
K. pneumoniae 4964; [1]
  MIC: 0.5 mg/L
E. cloacae P99
  MIC: 8 mg/L
P. vulgaris 101
  MIC: 8 mg/L
E. coli 48
  MIC: 8 mg/L
E. coli 4
  MIC: 0.062 mg/L
P. mirabilis 503-1136
  MIC: 8 mg/L
K. pneumoniae 35
  MIC: 0.5 mg/L
E. coli 5152; [2]
  MIC: 16 mg/L
S. marcescens S714
  MIC: 0.5 mg/L
C. freundii CDC6
  MIC: 64 mg/L
C. diversus CDC 1663-72
  MIC: 0.031 mg/L
P. mirabilis 620A; [3]
  MIC: > 128 mg/L
K. pneumoniae HE7
  MIC: > 128 mg/L
S. typhi P58A
  MIC: 8 mg/L
E. coli R-563
  MIC: 0.125 mg/L
S. pneumoniae 6302
  MIC: 4 mg/L
S. marcescens 5805
  MIC: 1 mg/L
P. rettgeri ATCC 9250
  MIC: 16 mg/L

## CC1(C)S[C@@H]2[C@H](N=CN3CCC(CCCn4ccnc4N)CC3)C(=O)N2[C@H]1C(=O)O [I, [2S-(2alpha,5alpha,6beta)]-6-[[[4-[3-(2-amino-1H-imidazol-1-yl)propyl]piperidinyl]methylene]amino]-3,3-dimethyl-7-oxo-4-thia-1-azabicyclo[3.2.0]hpetane-2-carboxylic acid hydrochloride]
P. aeruginosa Stone 130
  MIC: > 128 mg/L
E. cloacae 9295
  MIC: 0.125 mg/L
E. coli 387-1
  MIC: 0.062 mg/L
S. aureus Smith
  MIC: 16 mg/L
S. marcescens SM
  MIC: 0.062 mg/L
S. schottmuelleri; read-out: MIC
  MIC: 0.031 mg/L
P. aeruginosa 5712
  MIC: > 128 mg/L
S. pyogenes 503-782
  MIC: > 128 mg/L
P. aeruginosa 503-820
  MIC: 128 mg/L
P. mirabilis 2
  MIC: 0.25 mg/L
K. pneumoniae 503-964
  MIC: 0.062 mg/L
S. pneumoniae SC
  MIC: 4 mg/L
P. aeruginosa 6148B
  MIC: 128 mg/L
P. vulgaris ATCC 6380
  MIC: 0.062 mg/L
K. pneumoniae 5096
  MIC: > 128 mg/L
P. aeruginosa 8780
  MIC: > 128 mg/L
P. aeruginosa 8710
  MIC: 128 mg/L
E. aerogenes 83
  MIC: 1 mg/L
K. pneumoniae A
  MIC: < 0.008 mg/L
P. vulgaris 100
  MIC: 4 mg/L
S. marcescens S147
  MIC: 0.062 mg/L
S. marcescens S1
  MIC: 0.062 mg/L
K. pneumoniae 503-994
  MIC: 0.062 mg/L
S. pyogenes 4
  MIC: 1 mg/L
S. marcescens S4
  MIC: 0.25 mg/L
P. aeruginosa 503-56
  MIC: 128 mg/L
K. pneumoniae 4964; Klebsiella pneumoniae, 4964
  MIC: 0.25 mg/L
E. cloacae P99
  MIC: 0.031 mg/L
P. vulgaris 101
  MIC: 128 mg/L
E. coli 48
  MIC: 0.031 mg/L
E. coli 4
  MIC: 0.031 mg/L
P. mirabilis 503-1136
  MIC: 4 mg/L
K. pneumoniae 35
  MIC: 0.25 mg/L
E. coli 5152; Escherichia coli, 5152
  MIC: 4 mg/L
S. marcescens S714
  MIC: 0.125 mg/L
C. freundii CDC6
  MIC: 0.031 mg/L
C. diversus CDC 1663-72
  MIC: 0.031 mg/L
P. mirabilis 620A
  MIC: 32 mg/L
K. pneumoniae HE7
  MIC: > 128 mg/L
S. typhi P58A
  MIC: 0.062 mg/L
E. coli R-563
  MIC: 0.062 mg/L
S. pneumoniae 6302
  MIC: 4 mg/L
S. marcescens 5805
  MIC: 0.25 mg/L
P. rettgeri ATCC 9250
  MIC: 0.25 mg/L
